Laboratory results published in ChEMBL document CHEMBL4402608 (J Med Chem, 2020).
pEC50, pIC50: −log10 of the molar value.

Key:
Format in all cases: cell-based
[1] = target: T1, D(2) dopamine receptor (Homo sapiens, UniProt P14416); experiment: Antagonist activity at human D2R expressed in CHOK1 cells assessed as inhibition of dopamine-induced beta-arrestin recruitment measured after 120 mins by beta-galactosidase based PathHunter assay; settings: for pIC50: read-out: IC50
[2] = target: T1, D(2) dopamine receptor; experiment: Agonist activity at human D2R expressed in CHOK1 cells assessed as induction of beta-arrestin recruitment measured after 90 mins by beta-galactosidase based PathHunter assay; settings: for pEC50: read-out: EC50
[3] = target: D(3) dopamine receptor (Homo sapiens, UniProt P35462); experiment: Agonist activity at human D3R expressed in CHOK1 cells assessed as induction of beta-arrestin recruitment measured after 90 mins by beta-galactosidase based PathHunter assay; settings: for pEC50: read-out: EC50

Compound	pIC50 [1]	pEC50 [2]	EC50 [2]	pEC50 [3]	further results
COc1ccc(C(=O)N2CCN(CCOc3ccccc3)CC2)cc1	< 4.00	5.64			
CCc1ccc(OCCN2CCN(C(=O)c3ccc(OC)cc3)CC2)cc1	< 4.30		Not Active	5.59	
COc1ccc(OCCN2CCN(S(=O)(=O)c3ccc(OC)cc3)CC2)cc1		< 4.00			EC50 [3]: Not Active; IC50 [1]: Not Active
COc1ccc(OCCN2CCN(C(=O)c3ccc(OC)cc3)CC2C)cc1 (configuration not stated)	< 4.00		Not Active	5.36	
CC(C)(C)c1ccc(OCCN2CCN(C(=O)c3cc4ccccc4[nH]3)CC2)cc1	< 4.00		Not Active		EC50 [3]: Not Active
COc1ccc(OCCCN2CCN(C(=O)c3cc4ccccc4[nH]3)CC2)cc1					EC50 [3]: Not Active
COc1ccc(OCCN2CCN(C(=O)c3nc4ccccc4[nH]3)CC2)cc1	< 4.30		Not Active	6.72	
COc1ccc(SCCN2CCN(C(=O)c3cc4ccccc4[nH]3)CC2)cc1	< 4.00		Not Active		EC50 [3]: Not Active
COc1ccc(C(=O)N2CCN(CCOc3ccccc3OC)CC2)cc1				6.56	
O=C(c1cc2ccc(Cl)cc2[nH]1)N1CCN(CCOc2cccnc2)CC1		6.74			IC50 [1]: Not Active
COc1ccc(OCCN2CCN(C(=O)c3cc4cnccc4[nH]3)CC2)cc1	< 4.00	5.26		6.24	
COc1ccc2cc(C(=O)N3CCN(CCOc4cccnc4)CC3)[nH]c2c1				8.19	
COc1ccc(OCCN(C)CCN(C)C(=O)c2ccc(OC)cc2)cc1					EC50 [3]: Not Active
COc1ccc(OCCN2CCN(C(=O)c3cc4c(C)cccc4[nH]3)CC2)cc1				6.58	
Cc1cc(OCCN2CCN(C(=O)c3cc4ccccc4[nH]3)CC2)ccc1Cl				6.94	
O=C(c1cc2cc(Cl)ccc2[nH]1)N1CCN(CCOc2cccnc2)CC1		5.85			IC50 [1]: Not Active
COc1ccc(OCCN2CCN(C(=O)c3cc4ccc(Cl)cc4[nH]3)CC2)cc1				6.65	
COc1ccc(OCCN2CCN(C(=O)c3cc4ccc(C)cc4[nH]3)CC2)cc1		5.96		6.89	IC50 [1]: Not Active
COc1ccc(OCCN2CCN(CC(=O)c3cc4ccccc4[nH]3)CC2)cc1			Not Active		EC50 [3]: Not Active; IC50 [1]: Not Active
COc1ccc(N(C)CCN2CCN(C(=O)c3cc4ccccc4[nH]3)CC2)cc1	< 4.00		Not Active		
COc1ccc(OCCN2CCN(C(=O)c3ccccc3)CC2)cc1	< 4.30		Not Active	6.26	
COc1cccc(OCCN2CCN(C(=O)c3cc4ccccc4[nH]3)CC2)c1				7.47	
O=C(c1cc2ccccc2o1)N1CCN(CCOc2cccnc2)CC1		5.77		7.38	IC50 [1]: Not Active

More lines, main results first:

pIC50 [1]	pEC50 [2]	EC50 [2]	pEC50 [3]	Compound	further results
< 4.30		Not Active		CCc1ccc(OCCN2CCN(C(=O)c3cc4ccccc4[nH]3)CC2)cc1	
< 4.00	5.28			COc1ccc(OCCN2CCN(C(=O)c3cc4c(OC)cccc4[nH]3)CC2)cc1	
< 4.30		Not Active		COc1ccc(C(=O)N2CCN(CCOc3cc(OC)cc(OC)c3)CC2)cc1	EC50 [3]: Not Active
< 4.00		Not Active	6.20	CSc1ccc(OCCN2CCN(C(=O)c3cc4ccccc4[nH]3)CC2)cc1	
	5.77		6.55	COc1cccc(OCCN2CCN(C(=O)c3cc4cc(OC)ccc4[nH]3)CC2)c1	IC50 [1]: Not Active
< 4.00	5.38			COc1ccc(OCCN2CCN(C(=O)c3ccc(OC)cc3)C(C)C2)cc1 (configuration not stated)	
		Not Active		COc1ccc(OCCC2CCN(C(=O)c3ccc(OC)cc3)CC2)cc1	EC50 [3]: Not Active; IC50 [1]: Not Active
			7.10	Cc1c(C(=O)N2CCN(CCOc3cccnc3)CC2)[nH]c2ccccc12	
			7.59	Cc1cccc2cc(C(=O)N3CCN(CCOc4cccnc4)CC3)[nH]c12	
			7.88	O=C(c1cc2ccccc2s1)N1CCN(CCOc2cccnc2)CC1	
			6.55	COc1cccc(OCCN2CCN(C(=O)c3nc4ccccc4[nH]3)CC2)c1	
			6.78	COc1ccc(OCCN2CCN(C(=O)c3cc4cccnc4[nH]3)CC2)cc1	
	6.66			O=C(c1cc2c(Cl)cccc2[nH]1)N1CCN(CCOc2cccnc2)CC1	IC50 [1]: Not Active
5.34	5.60			COc1ccc(OCCN2CCN(C(=O)c3ccc4[nH]ccc4c3)CC2)cc1	
			5.48	COc1ccc(OCCN2CCN(C(=O)c3cc4ccccc4s3)CC2)cc1	
